Paper PMC8838898, “Identification of Novel Cannabinoid CB2 Receptor Agonists from Botanical Compounds and Preliminary Evaluation of Their Anti-Osteoporotic Effects” (Molecules, 2022)
Like-named read-outs stand apart in the source and are kept apart here.

Assays:
[1] = molecular target: T1, CB2R (Homo sapiens, UniProt P34972); experiment: double luciferase reporter screening system in HEK293-CB2 cells; type: cell-based
T1 construct: expressed in transfected cells; host or cells: HEK293 cells stably transfected with pIRES2-EGFP-CB2, pGL4.29 [luc2P/CRE/Hygro] and pRL-TK
T1 sequence (P34972 whole entry): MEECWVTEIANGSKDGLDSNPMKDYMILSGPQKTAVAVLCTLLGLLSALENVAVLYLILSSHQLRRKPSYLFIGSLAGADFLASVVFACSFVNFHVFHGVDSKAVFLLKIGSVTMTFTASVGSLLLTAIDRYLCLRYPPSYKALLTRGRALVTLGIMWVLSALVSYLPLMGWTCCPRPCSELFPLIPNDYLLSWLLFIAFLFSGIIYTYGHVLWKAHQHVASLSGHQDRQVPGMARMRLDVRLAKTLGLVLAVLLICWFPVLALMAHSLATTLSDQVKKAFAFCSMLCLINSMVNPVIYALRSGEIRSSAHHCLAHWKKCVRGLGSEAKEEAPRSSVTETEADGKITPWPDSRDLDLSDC
Description: To generate the HEK293-CB2 cells, 5 × 10^5 HEK293 cells were cultured in a 60 mm culture dish for 12 h, washed with PBS, and then transfected with Lipofectamine 3000 reagent containing a test reporter plasmid, control reporter plasmid encoding Renilla luciferase, and effector plasmid. The ratio of the transfection plasmid pIRES2-EGFP-CB2, pGL4.29 [luc2P/CRE/Hygro], and pRL-TK was 2 μg, 10 μg, and 1μg, respectively. After a 24-htransfection, cells were selected and cultured in the medium containing G418 (800 μg·mL^−1) and hygromycin (400 μg·mL^−1) for two weeks. The surviving cells were picked and expanded as HEK293-CB2R cells.
Several aspects of the high-throughput screening system were optimized to ensure efficient and accurate application of the system for high-throughput data collection. To conduct high-throughput assays in 96-well plates, the number of cells seeded per well, incubation time, drug and AM630 concentrations, and the DMSO content were optimized. The dual luciferase assay was performed as described previously. […] Subsequently, the quantitative evaluation indexes of the high-throughput screening system, including the signal-to-background ratio, S/B = Msignal/Mbackground; signal window, SW = Msignal − Mbackground; signal-to-noise ratio, S/N = (Msignal − Mbackground)/SDbackground; signal background coefficient of variation, CV(%) = 100 × SDsignal/Msignal; and Z’ factor were determined to ensure its efficient and accurate application of the system in high-throughput data collection. Here, Z′ = 1 − 3(SDsignal + SDbackground)/|Msignal − Mbackground| [25], where M represents an average of the relative luminescence value and SD is the standard deviation of M.
The HEK293-CB2 cells from 10–40 passages were separately inoculated into 96-well plates at 5 × 10^3 cells per well. […] The results were expressed as relative luminescence values.
The HEK293-CB2 cells were inoculated on a 96-well culture plate with a density of 5 × 10^3 cells per well. […] The relative luminescence value was used to express the expression of CB2R.
Furthermore, the activation of the compounds on CB2R was also verified by using the CB2R inverse agonist AM630. The HEK293-CB2 cells were inoculated on a 6-well culture plate at a density of 5 × 10^4 cells per well. […] The expression of the CB2R gene is expressed by the relative luminescence value.

[2] = molecular target: T1, CB2R; experiment: forskolin-stimulated cAMP accumulation assay in HEK293-CB2 cells; type: cell-based; conditions: forskolin 30 min, then compound 6 h, read-out: IC50 of inhibition of forskolin-stimulated cAMP
Description: After treatment, the cell supernatant was diluted with PBS (pH 7.2–7.4). The cells were lysed by repeated freeze–thaw cycles and being centrifuged for 20 min at 2000–3000 r.p.m. The concentration of cAMP in the cell lysate was determined according to the instructions of the cAMP kit.

[3] = test system: mBMSCs cells; experiment: proliferation of BMSCs (CCK8); type: cell-based, rat; conditions: 1 μM, 48 h
Description: (§1) BMSCs were isolated from the femur of 1-day-old Wistar rats and cultured in a dish containing α-MEM supplemented with 10% FBS, 100 U·mL^−1 penicillin, […] streptomycin, and 1% L-Glutaminea in a humidified atmosphere of 5% CO2 for 24 h. The medium was changed every three days. The subculture cells (passage 2–4) were used for subsequent experiments. BMSCs were identified in terms of the morphological character and properties of differentiation into osteoblasts. This experiment was approved by the Bioethics Committee of Zhejiang University of Traditional Chinese Medicine.
(§2) The BMSCs cells were inoculated in a 96-well plate at a density of 1 × 10^4 cells per well and cultured at 37 °C for 24 h. […] The optical density (OD) value was determined at 450 nm. The BMSCs cells were treated as described above and cultured for seven days to measure the ALP activity according to the kit instructions or cultured for five days to stain ALP in the osteoblasts according to the following procedures. Briefly, cells were washed with pre-cooled PBS twice and stained with the alkaline phosphatase staining solution for 30 min at 37 °C. After discarding the dye solution, cells were rinsed with distilled water three times and observed and photographed under a light microscope.

[4] = test system: osteoblasts derived from mBMSC; experiment: bone mineralization nodules of osteoblasts (alizarin red staining); type: cell-based, rat; conditions: 1 μM, 14 days
Description: as §1
Cells were treated as described above for 14 days to observe the bone mineralized nodule formation using alizarin red staining solution. Briefly, the cells were washed with pre-cooled PBS twice, fixed with 3.7% formaldehyde for 10 min, and stained with ARS dye (pH = 4.2) containing 40 mM alizarin redstain for 10 min. The morphology and number of bone mineralized nodules of osteoblasts were observed under a light microscope.

[5] = test system: osteoblasts derived from mBMSC; experiment: ALP activity of osteoblasts derived from BMSCs; type: cell-based, rat; conditions: 1 μM, seven days
Description: as §1, §2

[6] = test system: osteoclasts derived from RAW264.7 cells; experiment: TRAP activity of osteoclasts derived from RAW264.7 cells induced with RANKL; type: cell-based, murine; conditions: 1 μM, three-day treatment; enzyme activity and cell staining
Description: The murine macrophage RAW264.7 cell line, which has the potential to differentiate into osteoclasts under the induction of RANKL, was obtained from the Cell Bank of the Chinese Academy of Sciences (Shanghai, China). The cells were cultured in DMEM containing 10% (v/v), 1% (v/v) penicillin, and streptomycin (Beyotime, Shanghai, China) at 37 °C in humidified air with 5% CO2, and then subcultured every two days. For induction of the osteoclasts, RAW264.7 cells were incubated with 25 ng·mL^−1 RANKL for 72 h. Osteoclasts were identified by TRAP staining.
RAW264.7 cells were inoculated in a 96-well plate at a density of 1 × 10^4 cells per well. After a 24-h culture at 37 °C, cells were treated with the test compounds for 48 h and cell viability was determined with the CCK-8 kit according to the instructions. RAW264.7 cells were inoculated on a 96-well culture plate at a density of 1 × 10^4 cells per well, induced with […] of nuclear factor-κB receptor activator ligand (RANKL) to differentiate into osteoclasts for 72 h. […] Briefly, the cells were washed with sodium thiobarbital twice, lysed with 0.1% Triton X-100 (10 μL per well) for 10 min, and then incubated with 100 μL of TRAP reaction solution (0.02 g disodium nitrophenyl phosphate and 0.1 g potassium sodium tartrate dissolved in 10 mL deionized water with pH adjusted to 3.5 by addition of 1 mol·L^−1 HCl) for 30 min at 37 °C. The reaction was terminated with 1 mol·L^−1 of NaOH solution (100 μL per well) and the absorbance was determined at a wavelength of 405 nm. The TRAP activity was expressed by the amount (mole) of p-nitrophenol produced by 100 osteoclasts. For staining, the osteoclasts were treated as described above, stained according to the instruction of the TRAP staining kit, and observed and photographed under a light microscope.

[7] = HEK293-CB2 cells, pretreated with 1 μM AM630 for 30 min, then 1 μM compound 6 h

CC(=O)OCC1=C[C@@H]2OC(=O)C3=CO[C@@H](O[C@@H]4O[C@H](CO)[C@@H](O)[C@H](O)[C@H]4O)[C@H]1[C@@H]32 [Asperuloside]
agonistic effect on CB2R (relative luminescence / fluorescence expression in HEK293-CB2) [1]: could increase the fluorescence expression
reversal of the agonistic effect on CB2R by AM630 [1]: could be abated by AM630
IC50 [2]: 0.281 µM
proliferation of mBMSCs cells [3]: had no effect on the proliferation

COC1=CC(=O)O[C@@H](CCc2ccc3c(c2)OCO3)C1 [Dihydromethysticin]
agonistic effect on CB2R (relative luminescence / fluorescence expression in HEK293-CB2) ([1]; 1 μM, 6 h, HEK293-CB2 cells): could increase the fluorescence expression
reversal of the agonistic effect on CB2R by AM630 [1, 7]: could be abated by AM630
IC50 [2]: 0.0357 µM
proliferation of mBMSCs cells [3]: increased
matrix mineralization of osteoblasts derived from mBMSC [4]: increased
ALP activity of osteoblasts derived from mBMSC [5]: increased

C[C@H]1[C@H](C)CC[C@]2(C)CC[C@]3(C)C(=CC(=O)[C@@H]4[C@@]5(C)CC[C@@H](O)[C@](C)(C(=O)O)[C@@H]5CC[C@]43C)[C@H]12 [11-Keto-beta-boswellic acid]
agonistic effect on CB2R (relative luminescence / fluorescence expression in HEK293-CB2) ([1]; 1 μM, 6 h, HEK293-CB2 cells): could increase the fluorescence expression
reversal of the agonistic effect on CB2R by AM630 [1, 7]: could be abated by AM630
TRAP activity of osteoclasts derived from RAW264.7 cells induced with RANKL [6]: inhibited TRAP activity
IC50 [2]: 0.0731 µM
proliferation of mBMSCs cells [3]: increased
matrix mineralization of osteoblasts derived from mBMSC [4]: increased
ALP activity of osteoblasts derived from mBMSC [5]: increased

COc1ccc(/C=C/C(=O)c2c(O)cc(OC)cc2OC)cc1 [Flavokawain A]
agonistic effect on CB2R (relative luminescence / fluorescence expression in HEK293-CB2) ([1]; 1 μM, 6 h, HEK293-CB2 cells): could increase the fluorescence expression
reversal of the agonistic effect on CB2R by AM630 [1, 7]: could be abated by AM630
TRAP activity of osteoclasts derived from RAW264.7 cells induced with RANKL [6]: inhibited TRAP activity
IC50 [2]: 0.902 µM
proliferation of mBMSCs cells [3]: increased
matrix mineralization of osteoblasts derived from mBMSC [4]: increased
ALP activity of osteoblasts derived from mBMSC [5]: increased

O=c1c2cc(O)c(O)cc2oc2cc(O)c([C@@H]3O[C@H](CO)[C@@H](O)[C@H](O)[C@H]3O)c(O)c12 [Mangiferin]
agonistic effect on CB2R (relative luminescence / fluorescence expression in HEK293-CB2) [1]: could increase the fluorescence expression
reversal of the agonistic effect on CB2R by AM630 [1]: could be abated by AM630
TRAP activity of osteoclasts derived from RAW264.7 cells induced with RANKL [6]: inhibited TRAP activity
IC50 [2]: 1.17 µM
proliferation of mBMSCs cells [3]: increased
matrix mineralization of osteoblasts derived from mBMSC [4]: increased
ALP activity of osteoblasts derived from mBMSC [5]: increased

O=c1cc(-c2ccc(O)c(O)c2)oc2c([C@@H]3O[C@H](CO)[C@@H](O)[C@H](O)[C@H]3O)c(O)cc(O)c12 [Orientin]
agonistic effect on CB2R (relative luminescence / fluorescence expression in HEK293-CB2) ([1]; 1 μM, 6 h, HEK293-CB2 cells): could increase the fluorescence expression
reversal of the agonistic effect on CB2R by AM630 [1, 7]: could be abated by AM630
IC50 [2]: 0.111 µM
proliferation of mBMSCs cells [3]: had no effect on the proliferation

COc1ccc(C(=O)c2c(C)n(CCN3CCOCC3)c3cc(I)ccc23)cc1 [AM630, reference compound]
reversal effect on the agonistic effect of HU308 on CB2R [1]: mitigated

C=C[C@@]1(C)CC(=O)[C@]2(O)[C@@]3(C)[C@@H](O)CCC(C)(C)[C@@H]3[C@H](O)[C@H](OC(C)=O)[C@@]2(C)O1 [forskolin, reference compound]
signal average and standard deviation (positive control group) ([1]; screening system validation, forskolin 1 μM): 63.3 ± 4.4%

COc1cc(O)ccc1/C=C/C(=O)c1ccc(O)cc1 [Echinatin]
agonistic effect on CB2R (relative luminescence / fluorescence expression in HEK293-CB2) ([1]; 1 μM, 6 h, HEK293-CB2 cells): could increase the fluorescence expression
reversal of the agonistic effect on CB2R by AM630 [1, 7]: could be abated by AM630
TRAP activity of osteoclasts derived from RAW264.7 cells induced with RANKL [6]: inhibited TRAP activity
IC50 [2]: 0.0905 µM
proliferation of mBMSCs cells [3]: increased
matrix mineralization of osteoblasts derived from mBMSC [4]: increased
ALP activity of osteoblasts derived from mBMSC [5]: increased

COc1cc(O)c(C(=O)/C=C/c2ccc(O)cc2)c(OC)c1 [Flavokawain C]
agonistic effect on CB2R (relative luminescence / fluorescence expression in HEK293-CB2) ([1]; 1 μM, 6 h, HEK293-CB2 cells): could increase the fluorescence expression
reversal of the agonistic effect on CB2R by AM630 [1, 7]: could be abated by AM630
IC50 [2]: 5.17 µM
proliferation of mBMSCs cells [3]: had no effect on the proliferation

COc1cc(/C=C/c2ccccc2)oc(=O)c1 [Desmethoxyyangonin]
agonistic effect on CB2R (relative luminescence / fluorescence expression in HEK293-CB2) ([1]; 1 μM, 6 h, HEK293-CB2 cells): could increase the fluorescence expression
reversal of the agonistic effect on CB2R by AM630 [1, 7]: could be abated by AM630
TRAP activity of osteoclasts derived from RAW264.7 cells induced with RANKL [6]: inhibited TRAP activity
IC50 [2]: 0.0299 µM
proliferation of mBMSCs cells [3]: increased
matrix mineralization of osteoblasts derived from mBMSC [4]: increased
ALP activity of osteoblasts derived from mBMSC [5]: increased
